Experimental findings from patent publication US20140343095A1, “Methods of Diagnosing and Treating Multiple Sclerosis” (The Brigham and Women's Hospital, Inc., priority 2009, published 2014) are described below.

One assay relates to TLR2. Briefly: PARP-1 activity in HEK-293 cells transfected or not with TLR2. It is filed as cell-based, human. An excerpt: FIGS. 6A-B are bar graphs showing that PARP-1 activation by 15-HC is mediated by TLR2 A. TLR2 blocking antibody abrogates PARP-1 activation by 15a-HC. 6A, a set of three bar graphs showing PARP-1 activity in microglia, macrophages or astrocytes activated with 15-HC in the presence of blocking antibodies to TLR2 or TLR4, or isotype controls (Mean±SEM). 6B, a bar graph showing PARP-1 activity in HEK-293 cells transfected or not with a plasmid coding for TLR2 and activated with 15-HC (Mean±SEM).

Another assay deals with PARP-1 (Homo sapiens, UniProt P09874). Kind of assay: FACS-based detection of PARP-1 activity (PAR staining) in human monocytes / PBMCs. Further details: endogenous in cells; host or cells: human PBMCs / monocytes / dendritic cells / T and B cells from healthy controls and MS patients. It is filed as cell-based. The method, then: FIGS. 11A-B are show the results of FACS-based detection of PARP-1 activity. 11A. a set of five histograms showing PAR staining (as detected by FACS) of PBMCs incubated with 15-HC alone, or in combination with AIQ, blocking antibodies to TLR2 (TLR2 BL), or IC control (TLR2 IC). 11B, a line graph showing the correlation of PAR staining as detected by FACS with PARP-1 enzymatic activity detected on PBMCs activated with different concentration of 15-HC.
PARP-1, sequence (P09874 whole entry): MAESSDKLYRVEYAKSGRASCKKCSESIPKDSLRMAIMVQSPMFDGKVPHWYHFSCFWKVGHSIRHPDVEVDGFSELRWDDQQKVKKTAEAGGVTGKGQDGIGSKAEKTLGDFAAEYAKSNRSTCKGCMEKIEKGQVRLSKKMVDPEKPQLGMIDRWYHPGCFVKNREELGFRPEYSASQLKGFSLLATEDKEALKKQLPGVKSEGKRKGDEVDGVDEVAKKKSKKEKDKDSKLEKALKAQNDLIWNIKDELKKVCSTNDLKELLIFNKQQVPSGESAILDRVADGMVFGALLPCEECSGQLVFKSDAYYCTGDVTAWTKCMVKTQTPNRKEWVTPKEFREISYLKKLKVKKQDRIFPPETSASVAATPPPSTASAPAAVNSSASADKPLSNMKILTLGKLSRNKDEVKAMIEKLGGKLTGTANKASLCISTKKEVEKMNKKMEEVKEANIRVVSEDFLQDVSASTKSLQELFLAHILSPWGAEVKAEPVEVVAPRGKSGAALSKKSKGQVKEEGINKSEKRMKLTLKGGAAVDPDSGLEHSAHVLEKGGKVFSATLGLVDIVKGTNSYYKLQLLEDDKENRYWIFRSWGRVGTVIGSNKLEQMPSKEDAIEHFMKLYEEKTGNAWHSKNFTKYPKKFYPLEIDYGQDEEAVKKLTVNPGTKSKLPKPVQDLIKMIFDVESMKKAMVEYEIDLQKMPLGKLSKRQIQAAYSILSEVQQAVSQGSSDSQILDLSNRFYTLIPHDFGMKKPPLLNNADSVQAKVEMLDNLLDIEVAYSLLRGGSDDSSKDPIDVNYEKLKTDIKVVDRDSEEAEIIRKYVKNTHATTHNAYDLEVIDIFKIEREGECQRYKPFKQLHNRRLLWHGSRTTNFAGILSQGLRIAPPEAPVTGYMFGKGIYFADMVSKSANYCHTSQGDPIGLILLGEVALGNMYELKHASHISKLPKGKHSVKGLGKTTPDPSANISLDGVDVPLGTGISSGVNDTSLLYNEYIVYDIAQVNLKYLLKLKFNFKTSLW
14A is a set of fifteen histograms showing PAR staining of PBMCs taken from HC (left column), RRMS (center column) or SPMS (right column) patients and unstimulated (top row) or activated with 15-HC alone (second row), or in combination with AIQ (third row), blocking antibodies to TLR2 (fourth row) or IC control (bottom row). 14B is a bar graph showing the mean fluorescence intensity (MFI)±SD of 5 samples/group from the histograms in 14A.
15A is a set of 24 histograms showing PAR staining of PBMCs taken from HC (left column), RRMS (center column) or SPMS (right column) patients and unstimulated (top row) or activated with pgLPS (second row), polyIC (third row), ecLPS (fourth row), flagellin (row 5), imiquimod (row 6), ssRNA (row 7) or CpG (row 8). 15B is a bar graph showing the mean fluorescence intensity (MFI)±SD of 5 samples/group from the histograms in […].
A new FACS-based method was developed to detect PARP-1 activation based on the intracellular detection of the PARP-1 product PAR with specific antibodies. Briefly, the cells were incubated with antibodies to CD16/32 to block unspecific antibody binding, and then stained for surface markers. After washing, the cells were permeabilized with Fix/Perm (BD), and then stained with rabbit anti-PAR antibodies (or control rabbit IgG) for 30′ at 4° C., followed by anti-rabbit PE for 30′ at room temperature. The samples were then analyzed by FACS.

Assay [1] has as its system TLR signaling proteins (TAK1, IRAK, Akt, p38-MAPK, PyK2, PKC, PI3K, ERK1/2). Briefly: Reverse protein arrays / western blot of signaling after 15-HC. It is filed as cell-based, mouse. Conditions: microglia or macrophage cells, 1 μg/ml 15-HC. Here is the method:
5A, a bar graph showing the time course of microglial PARP-1 activation by 15-oxysterols or 7-KC. PARP-1 activity is shown as Mean±SEM. 5B, a set of eight bar graphs showing signaling pathways activated by 15-HC. Microglial cells were stimulated with 15-HC and lysed at 1, 5, and 15 minutes. Signal transduction arrays were made with the lysates and probed with phospho-specific antibodies. 15a-HC increases the phosphorylation of TAK1 (top right), IRAK (top left), Akt (second row, left), p38 MAPK (second row, right), Pyk2 (third row, left), PKC (third row, right), PI3K (bottom row, left), and Erk1/2 (bottom row, right). (Mean±SEM) 5C, a bar graph showing activation of microglial PARP-1 by 15-HC in the presence of kinase inhibitors (Mean±SEM). […]
FIG. 8 is a set of eight pairs of bolts and bar graphs showing blockade of 15-HC triggered signaling pathways with blocking antibodies to TLR2. Microglial cells were incubated with […] of TLR2 blocking antibody or isotype control 45 minutes prior the addition of 15-HC to the medium and signal transduction events were analyzed by western blot. […]
The C8B4 microglial cell line, C8-D1A astrocytes and Raw 264.7 macrophages were purchased from ATCC (Manassas, Va., USA). […] Slides were then probed, processed and analyzed as previously described (Chan et al., Nat Med 10, 1390-1396 (2004)).
For orientation: Immunoblotting shows a protein as a band on a membrane.

A further assay has as its system Erk / PARP-1 interaction. Kind of assay: Co-immunoprecipitation of ERK and PARP-1. It is filed as cell-based, mouse. As to conditions: microglia and macrophages activated with 15-HC. The method, then:
5A, a bar graph showing the time course of microglial PARP-1 activation by 15-oxysterols or 7-KC. PARP-1 activity is shown as Mean±SEM. 5B, a set of eight bar graphs showing signaling pathways activated by 15-HC. Microglial cells were stimulated with 15-HC and lysed at 1, 5, and 15 minutes. Signal transduction arrays were made with the lysates and probed with phospho-specific antibodies. 15a-HC increases the phosphorylation of TAK1 (top right), IRAK (top left), Akt (second row, left), p38 MAPK (second row, right), Pyk2 (third row, left), PKC (third row, right), PI3K (bottom row, left), and Erk1/2 (bottom row, right). (Mean±SEM) 5C, a bar graph showing activation of microglial PARP-1 by 15-HC in the presence of kinase inhibitors (Mean±SEM). 5D, an immunoblot and a bar graph showing the results of co-immunoprecipitaiton of ERK and PARP-1. Microglial cells were treated with 15-HC, lysed, immunoprecipitated with antibodies to phosphorylated Erk and then the pulled down material was probed with antibodies to PARP-1.
Thus, co-immunoprecipitation studies were carried out to better characterize the mechanisms by which 15-HC activates PARP-1. Microglia and macrophages were activated with 15-HC, ERK-specific antibodies were used for immunoprecipitation, and the pulled down material was probed with antibodies to PARP-1.

In the case of 15-hydroxycholestene [15-HC], the “PARP-1 activity in HEK-293 cells transfected with TLR2” value with TLR2 (transfected with a plasmid coding for TLR2) was “significant activation”. For the same substance, the “PARP-1 activity in HEK-293 cells” value with TLR2 (untransfected, does not express TLR2) is “no significant effect”. Also, at PARP-1 (all three experimental groups), the “inhibition of 15-HC-induced PARP-1 activation in monocytes from healthy controls, RRMS and SPMS patients” value is given as “could be inhibited”. For the same substance, the “PAR staining (FACS)” value at PARP-1 (human monocytes activated by 15-HC) is “significant increase”. Moreover, in assay [1], the “phosphorylation of TAK1, IRAK, Akt, p38-MAPK, PyK2, PKC, PI3K and ERK1/2” value is recorded as “resulted in the phosphorylation”. Besides, in the assay on Erk / PARP-1 interaction, the “interaction of Erk with PARP-1” value is “significant interaction”.
